One experiment addresses T1, human NMUR1 receptor (Homo sapiens, UniProt Q9HB89).
T1 construct: expressed in transfected cells; host or cells: CHO-K1
T1 sequence (Q9HB89 1-426): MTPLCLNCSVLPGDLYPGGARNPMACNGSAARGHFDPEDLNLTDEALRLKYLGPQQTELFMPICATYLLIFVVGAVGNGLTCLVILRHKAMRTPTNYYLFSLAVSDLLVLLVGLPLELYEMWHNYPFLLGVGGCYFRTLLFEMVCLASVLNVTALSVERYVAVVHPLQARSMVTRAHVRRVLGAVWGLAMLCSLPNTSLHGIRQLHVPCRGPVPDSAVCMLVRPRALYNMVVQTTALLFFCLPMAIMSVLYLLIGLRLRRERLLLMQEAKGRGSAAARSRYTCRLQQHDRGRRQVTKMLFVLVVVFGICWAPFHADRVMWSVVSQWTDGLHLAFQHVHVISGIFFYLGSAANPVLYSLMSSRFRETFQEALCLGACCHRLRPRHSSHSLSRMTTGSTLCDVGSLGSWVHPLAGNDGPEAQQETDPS
The experiment can be described thus: IP1 Gq HTRF assay, activation of human NMUR1 in buffer. The class given is cell-based. To be noted: CHO-K1 cells expressing human NMUR1, stimulation buffer with 0.1% BSA; read-out: EC50 (hNMUR1) buffer. In a few lines: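 IP-One HTRF competition (665/620 nm ratio) read after 1 h agonist exposure at 37 °C in pH 7.4 HEPES/HBSS stimulation buffer containing 50 mM LiCl, 0.1% BSA, 1% DMSO. Cells: CHO-K1 stably expressing human NMUR2 or NMUR1. EC50 by 4-parameter nonlinear regression of 8-point curves.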

In another experiment the target is human NMUR2 receptor (Homo sapiens, UniProt Q9GZQ4). The experiment can be described thus: Radioligand binding competition assay (RLB), human NMUR2 receptor binding (SPA, [125I]-Neuromedin U-25). Details: host or cells: CHO-K1. To be noted: CHO-K1 hNMUR2 cell membranes, 4 hours at RT. The source says:
Example 1: Radioligand Binding Competition Assay (RLB) Human NMUR2 Receptor Binding
The test is based on membranes prepared from a Human NMUR2/Apoaequorin Stable Cell Line (Creative Biogene, Cat. No. CSC-RG1309).
Cell Line Description: CHO-NMUR2 cell line is clonally derived from a CHO-K1 cell line, which has been transfected with a bicistronic expression plasmid containing the sequence coding for the human neuromedin U receptor 2 (AF242874.1). MOSAIC-ID: CL16550616.
Membrane preparation: Cells were broken by nitrogen cavitation (900 psi, 1 hour). Intact cells were removed by centrifugation (400 rcf (relative centrifugal force), 10 minutes, 4° C.) before the crude membrane fraction was collected by ultracentrifugation (20.000 rcf, 1 hour, 4° C.).
2) Human NMUR2 Receptor Binding Assay (Radioligand: [125I]-Neuromedin U-25 (Human))
In this Scintillation Proximity Assay (SPA) design, the membranes immobilize directly to the PVT-WGA-PEI type A beads (polyethyleneimine treated polyvinyltoluene beads coupled to wheatgerm agglutinin, Perkin Elmer) via interactions of wheat germ agglutinate and glycosylated membrane structures. Thereby the radioactively la-belled ligand, bound to NMUR2 receptors on the membrane, comes in close proximity to the solid scintillator of the PVT bead. Radioactive human neuromedin U-25 then stimulates the scintillant to emit light. In contrast, radioligand not bound to the receptor is too distant from the bead to elicit a signal.
For the Scintillation Proximity Assay the CHO-K1 hNMUR2 cell membranes and SPA-beads are diluted to concentrations, which assure a robust signal to background ratio. The SPA incubation buffer consists of 25 mM Hepes (pH=7.0), 5 mM MgCl2, 1 mM CaCl2, 10 ug/mL Saponine and 0.1% bovine serum albumin and is used for all dilutions.
Final assay setup in 96-well plate: 20 μL of 10× test compound dilutions+40 μL of 5× [125l]-Neuromedin U-25 (1× approx. 30 pM; 2000 μCi/mmol)+60 μL membrane dilution (approx. 2.5 μg membrane protein)+80 μL SPA bead dilution (0.75 mg).
The assay is incubated for 4 hours at RT, including controls for specific binding where no displacer is added and non-specific binding by adding unlabeled hNMU-25 at 100 nM. Bound radioactivity is determined by scintillation counting (MicroBeta Trilux 1450, Perkin Elmer, detection of 125I decay). […] The system assumes one binding site with no relevant radioligand depletion (<10%) and that the binding is reversible and at equilibrium.

The text below walks through data of patent US20240279278A1, “NMU RECEPTOR 2 AGONISTS” (Boehringer Ingelheim International GmbH, priority 2023, published 2024).

Structures are written as SMILES. Residues, ends and D or L forms follow the SMILES beside them.

Chain of human NMUR2 receptor (Q9GZQ4 whole entry): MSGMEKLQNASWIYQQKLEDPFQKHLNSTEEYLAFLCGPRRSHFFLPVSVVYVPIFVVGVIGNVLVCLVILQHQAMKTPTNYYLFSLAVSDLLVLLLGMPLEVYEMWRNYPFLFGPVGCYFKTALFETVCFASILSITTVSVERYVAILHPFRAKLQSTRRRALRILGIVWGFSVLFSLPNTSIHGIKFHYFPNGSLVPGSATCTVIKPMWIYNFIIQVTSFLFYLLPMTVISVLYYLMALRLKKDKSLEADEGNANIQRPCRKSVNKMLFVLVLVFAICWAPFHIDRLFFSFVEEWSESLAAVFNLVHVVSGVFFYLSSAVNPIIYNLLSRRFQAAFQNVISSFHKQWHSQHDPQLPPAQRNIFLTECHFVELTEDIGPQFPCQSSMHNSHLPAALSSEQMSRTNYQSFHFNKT

For `CCCC[C@H](NC(=O)[C@H](CC(C)C)N(C)C(=O)[C@H](Cc1ccccc1)NC(=O)[C@H](Cc1ccc(O)cc1)NC(=O)CN1CCN(CCNC(=O)CN(C)C(=O)CN(C)C(=O)CN(C)C(=O)CN(C)C(=O)CN(C)C(=O)CN(C)C(=O)CN(C)C(=O)CN(C)C(=O)CN(C)C(=O)CN(C)C(=O)CN(C)C(=O)CN(C)C(=O)CN(C)C(=O)CN(C)C(=O)CN(C)C(=O)CC[C@H](NC(=O)CC[C@H](NC(=O)CC[C@H](NC(=O)CCCCCCCCCCCCCCCCC(=O)O)C(=O)O)C(=O)O)C(=O)O)CC1)C(=O)N[C@@H](CCCN)C(=O)N(C)[C@@H](C)C(=O)N[C@@H](CCCNC(=N)N)C(=O)NCC(N)=O` [Compound 22, C18DA-gGlu3-Sar15-AEPipAc-Tyr-Phe-NMeLeu-Nle-Orn-NMeAla-Arg-Gly-NH2] (HELM PEPTIDE1{[O=C(O)CCCCCCCCCCCCCCCCC(=O)[*:2]].[gGlu].[gGlu].[gGlu].[Sar].[Sar].[Sar].[Sar].[Sar].[Sar].[Sar].[Sar].[Sar].[Sar].[Sar].[Sar].[Sar].[Sar].[Sar].[O=C(CN1CCN(CCN[*:1])CC1)[*:2]].Y.F.[meL].[Nle].[Orn].[meA].R.G.[am]}$$$$V2.0), the EC50 on human NMUR1 receptor is more than 1000 nM. At human NMUR2 receptor, this compound returned a Ki of 45.8 nM.
Consider `CCCC[C@H](NC(=O)[C@H](CC(C)C)N(C)C(=O)[C@H](Cc1ccccc1)NC(=O)[C@H](Cc1ccc(O)cc1)NC(=O)CN1CCN(CCNC(=O)CN(C)C(=O)CN(C)C(=O)CN(C)C(=O)CN(C)C(=O)CN(C)C(=O)CN(C)C(=O)CN(C)C(=O)CN(C)C(=O)CN(C)C(=O)CN(C)C(=O)CN(C)C(=O)CN(C)C(=O)CN(C)C(=O)CN(C)C(=O)CN(C)C(=O)CC[C@H](NC(=O)CC[C@H](NC(=O)CC[C@H](NC(=O)CCCCCCCCCCCCCCCCC(=O)O)C(=O)O)C(=O)O)C(=O)O)CC1)C(=O)N[C@@H](CCN)C(=O)N(C)[C@@H](C)C(=O)N[C@@H](CCCNC(=N)N)C(=O)NCC(N)=O` [Compound 23, C18DA-gGlu3-Sar15-AEPipAc-Tyr-Phe-NMeLeu-Nle-Dbu-NMeAla-Arg-Gly-NH2] (HELM PEPTIDE1{[O=C(O)CCCCCCCCCCCCCCCCC(=O)[*:2]].[gGlu].[gGlu].[gGlu].[Sar].[Sar].[Sar].[Sar].[Sar].[Sar].[Sar].[Sar].[Sar].[Sar].[Sar].[Sar].[Sar].[Sar].[Sar].[O=C(CN1CCN(CCN[*:1])CC1)[*:2]].Y.F.[meL].[Nle].[Dab].[meA].R.G.[am]}$$$$V2.0), for which the EC50 at human NMUR1 receptor was more than 1000 nM. Further, the Ki on human NMUR2 receptor is 38.8 nM.
With `CCCC[C@H](NC(=O)[C@H](CC(C)C)N(C)C(=O)[C@H](Cc1ccccc1)NC(=O)[C@H](Cc1ccc(O)cc1)NC(=O)CN1CCN(CCNC(=O)CN(C)C(=O)CN(C)C(=O)CN(C)C(=O)CN(C)C(=O)CN(C)C(=O)CN(C)C(=O)CN(C)C(=O)CN(C)C(=O)CN(C)C(=O)CC[C@H](NC(=O)CC[C@H](NC(=O)CC[C@H](NC(=O)CCCCCCCCCCCCCCCCC(=O)O)C(=O)O)C(=O)O)C(=O)O)CC1)C(=O)N[C@@H](CCN)C(=O)N1CCC[C@H]1C(=O)N[C@@H](CCCNC(=N)N)C(=O)NCC(N)=O` [Compound 24, C18DA-gGlu3-Sar9-AEPipAc-Tyr-Phe-NMeLeu-Nle-Dbu-Pro-Arg-Gly-NH2] (HELM PEPTIDE1{[O=C(O)CCCCCCCCCCCCCCCCC(=O)[*:2]].[gGlu].[gGlu].[gGlu].[Sar].[Sar].[Sar].[Sar].[Sar].[Sar].[Sar].[Sar].[Sar].[O=C(CN1CCN(CCN[*:1])CC1)[*:2]].Y.F.[meL].[Nle].[Dab].P.R.G.[am]}$$$$V2.0), at human NMUR1 receptor, the EC50 is 1000 nM. The same compound had a Ki at human NMUR2 receptor of 52.3 nM.
For `CCCC[C@H](NC(=O)[C@H](CC(C)C)N(C)C(=O)[C@H](Cc1ccccc1)NC(=O)[C@H](Cc1ccc(O)cc1)NC(=O)CN1CCN(CCNC(=O)CN(C)C(=O)CN(C)C(=O)CN(C)C(=O)CN(C)C(=O)CN(C)C(=O)CN(C)C(=O)CN(C)C(=O)CN(C)C(=O)CN(C)C(=O)CN(C)C(=O)CN(C)C(=O)CN(C)C(=O)CC[C@H](NC(=O)CC[C@H](NC(=O)CC[C@H](NC(=O)CCCCCCCCCCCCCCCCC(=O)O)C(=O)O)C(=O)O)C(=O)O)CC1)C(=O)N[C@@H](CCCNC(=N)N)C(=O)N1CCC[C@H]1C(=O)N[C@@H](CCCNC(=N)N)C(=O)NCC(N)=O` [Compound 25, C18DA-gGlu3-Sar12-AEPipAc-Tyr-Phe-NMeLeu-Nle-Arg-Pro-Arg-Gly-NH2], in that order: 200 nM and 23.1 nM.
In the case of `CCCC[C@H](NC(=O)[C@H](CC(C)C)N(C)C(=O)[C@H](Cc1ccccc1)NC(=O)[C@H](Cc1ccc(O)cc1)NC(=O)CN1CCN(CCNC(=O)CN(C)C(=O)CN(C)C(=O)CN(C)C(=O)CN(C)C(=O)CN(C)C(=O)CN(C)C(=O)CN(C)C(=O)CN(C)C(=O)CN(C)C(=O)CN(C)C(=O)CN(C)C(=O)CN(C)C(=O)CN(C)C(=O)CN(C)C(=O)CN(C)C(=O)CC[C@H](NC(=O)CC[C@H](NC(=O)CC[C@H](NC(=O)CCCCCCCCCCCCCCCCC(=O)O)C(=O)O)C(=O)O)C(=O)O)CC1)C(=O)N[C@@H](CCN)C(=O)N1CCC[C@H]1C(=O)N[C@@H](CCCNC(=N)N)C(=O)NCC(N)=O` [Compound 26, C18DA-gGlu3-Sar15-AEPipAc-Tyr-Phe-NMeLeu-Nle-Dbu-Pro-Arg-Gly-NH2] (HELM PEPTIDE1{[O=C(O)CCCCCCCCCCCCCCCCC(=O)[*:2]].[gGlu].[gGlu].[gGlu].[Sar].[Sar].[Sar].[Sar].[Sar].[Sar].[Sar].[Sar].[Sar].[Sar].[Sar].[Sar].[Sar].[Sar].[Sar].[O=C(CN1CCN(CCN[*:1])CC1)[*:2]].Y.F.[meL].[Nle].[Dab].P.R.G.[am]}$$$$V2.0), the EC50 on human NMUR1 receptor is more than 1000 nM. The compound also had a Ki at human NMUR2 receptor of 48.1 nM.
For `CCCC[C@H](NC(=O)[C@H](CC(C)C)N(C)C(=O)[C@H](Cc1ccccc1)NC(=O)[C@H](Cc1ccc(O)cc1)NC(=O)CN1CCN(CCNC(=O)CN(C)C(=O)CN(C)C(=O)CN(C)C(=O)CN(C)C(=O)CN(C)C(=O)CN(C)C(=O)CN(C)C(=O)CN(C)C(=O)CN(C)C(=O)CN(C)C(=O)CN(C)C(=O)CN(C)C(=O)CC[C@H](NC(=O)CC[C@H](NC(=O)CC[C@H](NC(=O)CCCCCCCCCCCCCCCCC(=O)O)C(=O)O)C(=O)O)C(=O)O)CC1)C(=O)N[C@@H](CCN)C(=O)N1CCC[C@H]1C(=O)N[C@@H](CCCNC(=N)N)C(=O)NCC(N)=O` [Compound 27, C18DA-gGlu3-Sar12-AEPipAc-Tyr-Phe-NMeLeu-Nle-Dbu-Pro-Arg-Gly-NH2], in that order: 1700 nM and 23.4 nM.
For `CCCC[C@H](NC(=O)[C@H](CC(C)C)N(C)C(=O)[C@H](Cc1ccccc1)NC(=O)[C@H](Cc1ccc(O)cc1)NC(=O)CN1CCN(CCNC(=O)CN(C)C(=O)CN(C)C(=O)CN(C)C(=O)CN(C)C(=O)CN(C)C(=O)CN(C)C(=O)CN(C)C(=O)CN(C)C(=O)CN(C)C(=O)CC[C@H](NC(=O)CC[C@H](NC(=O)CC[C@H](NC(=O)CCCCCCCCCCCCCCCCC(=O)O)C(=O)O)C(=O)O)C(=O)O)CC1)C(=O)N[C@@H](CCN)C(=O)N(C)[C@@H](C)C(=O)N[C@@H](CCCNC(=N)N)C(=O)NCC(N)=O` [Compound 28, C18DA-gGlu3-Sar9-AEPipAc-Tyr-Phe-NMeLeu-Nle-Dbu-NMeAla-Arg-Gly-NH2] (HELM PEPTIDE1{[O=C(O)CCCCCCCCCCCCCCCCC(=O)[*:2]].[gGlu].[gGlu].[gGlu].[Sar].[Sar].[Sar].[Sar].[Sar].[Sar].[Sar].[Sar].[Sar].[O=C(CN1CCN(CCN[*:1])CC1)[*:2]].Y.F.[meL].[Nle].[Dab].[meA].R.G.[am]}$$$$V2.0), in that order: more than 1000 nM and 56.2 nM.
